In US11773057B2, “Naphthalenesulfonamide compound, preparation method, and application” (CHINA PHARMACEUTICAL UNIVERSITY, priority 2019, dated 2023):

Molecular target: T1, Keap1-Nrf2 PPI (Keap1 kelch domain protein, FITC labeled Nrf2 9 peptide) (Homo sapiens, UniProt Q14145)
T1 construct: 10 μL 12 nm Keap1 kelch domain protein
Assay: Fluorescence polarization based Keap1-Nrf2 PPI competitive inhibition experiment (FP experiment)
Assay type: binding
Details: FP experiment
Protocol: 1. Keap1-Nrf2 PPI Competitive Inhibition Test Based on Fluorescence Polarization (FP Experiment)
The 384-well blackboard model 3676 produced by Corning is used in FP experiment, with a total volume of reaction of 40 μL. 20 μL compound, 10 μL 4 nm FITC labeled Nrf2 9 peptide, 10 μL 12 nm Keap1 kelch domain protein are added to the well in order. 20 μL 200 nM DDO-1002, 10 μL 4 nM of the FITC-labeled Nrf2 9 peptide, 10 μL 12 nM of Keap1 Ketch domain protein are used in the positive control; 20 μL HEPES buffer, 10 μL 4 nM of the FITC-labeled Nrf2 9 peptide, 10 μL, 12 nM of Keap1 Kelch domain protein are used in the negative control; 10 μL 4 nM of the FITC-labeled Nrf2 9 peptide, 30 μL of HEPES buffer are used in the blank control. After addition is complete, they are incubated for 30 min at room temperature. The detection instrument is a SpectraMax Multi-Mode Microplate Reader (Molecular Devices), the excitation light wavelength selected is 485 nm, the emission light wavelength is 545 nm, and the fluorescence intensity in the horizontal and vertical directions is detected to calculate the polarization value. The inhibition rate is calculated as: inhibition %=[…]/(Pmax−Pmin) wherein Pobs is the polarization value of the compound well, Pmax is the polarization value of the negative control well, and Pmin is the polarization value of the blank well. Data treatment is performed using GraphPad Prism, and IC50 of the compound is calculated using a concentration-inhibition rate curve. The IC50 values for each compound are as previously described.

[1] = general formula I / II compounds
[2] = general formula III compounds, unit inferred
[3] = general formula V / VI compounds

T1 sequence (Q14145 321-609 limits assumed): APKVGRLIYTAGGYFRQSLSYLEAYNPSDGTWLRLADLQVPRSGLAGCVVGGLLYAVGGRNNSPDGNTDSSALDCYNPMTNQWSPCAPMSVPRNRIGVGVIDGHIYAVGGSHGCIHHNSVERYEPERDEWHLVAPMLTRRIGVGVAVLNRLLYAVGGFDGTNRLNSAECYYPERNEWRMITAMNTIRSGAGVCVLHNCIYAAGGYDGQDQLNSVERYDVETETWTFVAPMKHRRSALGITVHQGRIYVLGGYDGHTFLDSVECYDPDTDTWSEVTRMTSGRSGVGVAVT

How did the IC50 (general formula IV compounds) turn out when `C#CCN(c1ccc(N(CC(=O)O)S(=O)(=O)c2ccc(C(C)C)cc2)c2ccccc12)[C@@H](C)CC(=O)O` [DDO-1197, (S)-3-((4-((N-(carboxymethyl)-4-isopropylphenyl)sulfonamido)naphthalen-1-yl)(prop-2-yn-1-yl)amino) butanoic acid] was run?
The IC50 was 80 nM.

Which IC50 [1] does the source give for `COc1ccc(S(=O)(=O)N(CC(=O)O)c2ccc(N(Cc3ccccc3C)[C@@H](C)CC(=O)O)c3ccccc23)cc1` [DDO-1171] here?
The IC50 was 113 nM.

With `COc1ccc(S(=O)(=O)N(CC(=O)O)c2ccc(N(Cc3ccc(F)cc3)[C@@H](C)CC(=O)O)c3ccccc23)cc1` [DDO-1167, (S)-3-((4-((N-(carboxymethyl)-4-methoxyphenyl)sulfonamido)naphthalen-1-yl) (4-fluorobenzyl)amino) butanoic acid] as the compound, how does the IC50 [1] read?
Its IC50 is 176 nM.

For `C#CCN(c1ccc(N(CC(=O)O)S(=O)(=O)c2ccc(F)cc2)c2ccccc12)[C@@H](C)CC(=O)O` [DDO-1191, (S)-3-((4-((N-(carboxymethyl)-4-fluorophenyl)sulfonamido)naphthalen-1-yl) (prop-2-yn-1-yl)amino) butanoic acid], which IC50 (general formula IV compounds) is on record?
Its IC50 is 2000 nM.

For `COc1ccc(S(=O)(=O)Nc2ccc(N(Cc3ccccc3F)[C@@H](C)CC(=O)O)c3ccccc23)cc1` [DDO-1178, (S)-3-((2-fluorobenzyl) (4-((4-methoxyphenyl)sulfonamido)naphthalen-1-yl)amino) butanoic acid], which IC50 [1] is on record?
The IC50 was 460 nM.

For `COc1ccc(S(=O)(=O)N(CC(=O)O)c2ccc(N(Cc3cccc(F)c3)[C@@H](C)CC(=O)O)c3ccccc23)cc1` [DDO-1177, (S)-3-((4-((N-(carboxymethyl)-4-methoxyphenyl)sulfonamido)naphthalen-1-yl) (3-fluorobenzyl)amino) butanoic acid], which IC50 [1] is on record?
The IC50 was 180 nM.

Which IC50 (general formula IV compounds) does the source give for `C#CCN(c1ccc(N(CC(=O)O)S(=O)(=O)c2c(C)cc(C)cc2C)c2ccccc12)[C@@H](C)CC(=O)O` [DDO-1207, (S)-3-((4-((N-(Carboxymethyl)-2,4,6-trimethylphenyl)sulfonamidyl)naphthalen-1-yl)(prop-2-yn-1-yl)amino) butanoic acid] here?
Its IC50 is 15 nM.

For `C#CCN(c1ccc(NS(=O)(=O)c2ccc(Cl)cc2)c2ccccc12)[C@@H](C)CC(=O)O` [DDO-1192, (S)-3-((4-((4-chlorophenyl)sulfonamido)naphthalen-1-yl)(prop-2-yn-1-yl)amino) butanoic acid], which IC50 [2] is on record?
Its IC50 is 1700 nM.

Which IC50 [2] does the source give for `C#CCN(c1ccc(NS(=O)(=O)c2ccc(F)cc2)c2ccccc12)[C@@H](C)CC(=O)O` [DDO-1190, (S)-3-((4-((4-fluorophenyl)sulfonamido)naphthalen-1-yl)(prop-2-yn-1-yl)amino) butanoic acid] here?
The IC50 was 4000 nM.

Which IC50 [3] does the source give for `C#CCN(c1ccc(NS(=O)(=O)c2ccc(OC)c(F)c2)c2ccccc12)[C@@H](C)CC(=O)O` [DDO-1212, (S)-3-((4-((3-fluoro-4-methoxyphenyl)sulfonamido)naphthalen-1-yl) (prop-2-yn-1-yl)amino) butanoic acid] here?
The IC50 was 277 nM.

With `C#CCN(c1ccc(NS(=O)(=O)c2ccccc2)c2ccccc12)[C@@H](C)CC(=O)O` [DDO-1186, (S)-3-((4-(phenylsulfonamido)naphthalen-1-yl)(prop-2-yn-1-yl)amino) butanoic acid] as the compound, how does the IC50 [2] read?
The IC50 was 8000 nM.

How did the IC50 [2] turn out when `C#CCN(c1ccc(NS(=O)(=O)c2cccc(OC)c2)c2ccccc12)[C@@H](C)CC(=O)O` [DDO-1200, (S)-3-((4-((3-methoxyphenyl)sulfonamido)naphthalen-1-yl)(prop-2-yn-1-yl)amino) butanoic acid] was run?
Its IC50 is 240 nM.

Which IC50 [3] does the source give for `C#CCN(c1ccc(NS(=O)(=O)c2ccc3c(c2)CCO3)c2ccccc12)[C@@H](C)CC(=O)O` [DDO-1222, (S)-3-((4-((2,3-dihydrobenzofuran)-5-sulfonamido)naphthalen-1-yl) (prop-2-yn-1-yl)amino) butanoic acid] here?
Its IC50 is 160 nM.

`C#CCN(c1ccc(N(CC(=O)O)S(=O)(=O)c2ccccc2C)c2ccccc12)[C@@H](C)CC(=O)O` [DDO-1203, (S)-3-((4-((N-(Carboxymethyl)-methylphenyl)sulfonamido)naphthalen-1-yl)(prop-2-yn-1-yl)amino) butanoic acid] was tested. Which IC50 (general formula IV compounds) did it give?
Its IC50 is 170 nM.

With `C#CCN(c1ccc(NS(=O)(=O)c2ccc(OC)cc2)c2ccccc12)[C@@H](C)CC(=O)O` [DDO-1180] as the compound, how does the IC50 [2] read?
Its IC50 is 95 nM.

Which IC50 [1] does the source give for `COc1ccc(S(=O)(=O)N(CC(=O)O)c2ccc(N(Cc3ccccc3Cl)[C@@H](C)CC(=O)O)c3ccccc23)cc1` [DDO-1175, (S)-3-((4-((N-(Carboxymethyl)-4-methoxyphenyl)sulfonamido)naphthalen-1-yl) (2-chlorobenzyl)amino) butanoic acid] here?
Its IC50 is 109 nM.

Which IC50 (general formula IV compounds) does the source give for `C#CCN(c1ccc(N(CC(=O)O)S(=O)(=O)c2ccccc2OC)c2ccccc12)[C@@H](C)CC(=O)O` [DDO-1199] here?
Its IC50 is 290 nM.

How did the IC50 [2] turn out when `C#CCN(c1ccc(NS(=O)(=O)c2c(C)cc(C)cc2C)c2ccccc12)[C@@H](C)CC(=O)O` [DDO-1206, (S)-3-(prop-2-yn-1-yl(4-((2,4,6-trimethylphenyl)sulfonamido)naphthalen-1-yl)amino) butanoic acid] was run?
The IC50 was 41 nM.

With `C#CCN(c1ccc(N(CC(=O)O)S(=O)(=O)c2ccc(OC)c(C)c2)c2ccccc12)[C@@H](C)CC(=O)O` [DDO-1217, (S)-3-((4-((N-(Carboxymethyl)-4-methoxy-3-methylphenyl)sulfonamido)naphthalen-1-yl)(prop-2-yn-1-yl)amino) butanoic acid] as the compound, how does the IC50 [3] read?
The IC50 was 37 nM.

`C#CCN(c1ccc(N(CC(=O)O)S(=O)(=O)c2ccc(C)cc2)c2ccccc12)[C@@H](C)CC(=O)O` [DDO-1195, (S)-3-((4-((N-(Carboxymethyl)-4-methylphenyl)sulfonamide)naphthalen-1-yl)(prop-2-yn-1-yl)amino) butanoic acid] was tested. Which IC50 (general formula IV compounds) did it give?
The IC50 was 110 nM.

How did the IC50 [3] turn out when `C#CCN(c1ccc(NS(=O)(=O)c2ccc(OC)c(Cl)c2)c2ccccc12)[C@@H](C)CC(=O)O` [DDO-1214] was run?
Its IC50 is 75 nM.

`COc1ccc(S(=O)(=O)N(CC(=O)O)c2ccc(N(Cc3ccc(C)cc3)[C@@H](C)CC(=O)O)c3ccccc23)cc1` [DDO-1163] was tested. Which IC50 [1] did it give?
The IC50 was 152 nM.

For `COc1ccc(S(=O)(=O)Nc2ccc(N(Cc3ccc(Cl)cc3)[C@@H](C)CC(=O)O)c3ccccc23)cc1` [DDO-1164, (S)-3-((4-chlorobenzyl) (4-((4-methoxyphenyl)sulfonamido)naphthalen-1-yl)amino) butanoic acid], which IC50 [1] is on record?
The IC50 was 4100 nM.

`C#CCN(c1ccc(N(CC(=O)O)S(=O)(=O)c2ccc(OC)c(Cl)c2)c2ccccc12)[C@@H](C)CC(=O)O` [DDO-1215] was tested. Which IC50 [3] did it give?
The IC50 was 40 nM.

With `C#CCN(c1ccc(N(CC(=O)O)S(=O)(=O)c2ccccc2)c2ccccc12)[C@@H](C)CC(=O)O` [DDO-1187, (S)-3-((4-(N-(carboxymethyl)benzenesulfonamido)naphthalen-1-yl) (prop-2-yn-1-yl)amino) butanoic acid] as the compound, how does the IC50 (general formula IV compounds) read?
The IC50 was 3000 nM.

For `C#CCN(c1ccc(N(CC(=O)O)S(=O)(=O)c2ccc3c(c2)CCO3)c2ccccc12)[C@@H](C)CC(=O)O` [DDO-1223, (S)-3-((4-((N-(Carboxymethyl)-2,3-dihydrobenzofuran)-5-sulfonamido)naphthalen-1-yl)(prop-2-yn-1-yl)amino) butanoic acid], which IC50 [3] is on record?
Its IC50 is 86 nM.

For `COc1ccc(S(=O)(=O)Nc2ccc(N(Cc3cccc(Cl)c3)[C@@H](C)CC(=O)O)c3ccccc23)cc1` [DDO-1172, (S)-3-((3-chlorobenzyl) (4-((4-methoxyphenyl)sulfonamido)naphthalen-1-yl)amino) butanoic acid], which IC50 [1] is on record?
The IC50 was 3780 nM.

For `COc1ccc(S(=O)(=O)N(CC(=O)O)c2ccc(N(Cc3ccc(Cl)cc3)[C@@H](C)CC(=O)O)c3ccccc23)cc1` [DDO-1165, (S)-3-((4-((N-(carboxymethyl)-4-methoxyphenyl)sulfonamido)naphthalen-1-yl) (4-chlorobenzyl)amino) butanoic acid], which IC50 [1] is on record?
Its IC50 is 272 nM.

Which IC50 (general formula IV compounds) does the source give for `C#CCN(c1ccc(N(CC(=O)O)S(=O)(=O)c2ccc(C)cc2C)c2ccccc12)[C@@H](C)CC(=O)O` [DDO-1205] here?
Its IC50 is 27 nM.

`COc1ccc(S(=O)(=O)Nc2ccc(N(Cc3ccccc3C)[C@@H](C)CC(=O)O)c3ccccc23)cc1` [DDO-1170, (S)-3-((4-((4-methoxyphenyl)sulfonamido)naphthalen-1-yl) (2-methylbenzyl)amino) butanoic acid] was tested. Which IC50 [1] did it give?
Its IC50 is 1090 nM.

`COc1ccc(S(=O)(=O)Nc2ccc(N(Cc3ccccc3)[C@@H](C)CC(=O)O)c3ccccc23)cc1` [DDO-1160] was tested. Which IC50 [1] did it give?
Its IC50 is 860 nM.

How did the IC50 [3] turn out when `C#CCN(c1ccc(N(CC(=O)O)S(=O)(=O)c2ccc(OC)c(OC)c2)c2ccccc12)[C@@H](C)CC(=O)O` [DDO-1211, (S)-3-((4-((N-(Carboxymethyl)-3,4-dimethoxyphenyl)sulfonamido)naphthalen-1-yl)(prop-2-yn-1-yl)amino) butanoic acid] was run?
The IC50 was 59 nM.

Which IC50 [1] does the source give for `COc1ccc(S(=O)(=O)Nc2ccc(N(Cc3ccc(C)cc3)[C@@H](C)CC(=O)O)c3ccccc23)cc1` [DDO-1162, 3-((4-((4-methoxyphenyl)sulfonamido)naphthalen-1-yl) (4-methylbenzyl)amino) butanoic acid] here?
Its IC50 is 1910 nM.
